Data on 14 molecules can be found in patent publication US12582654B2, “Cyano-substituted pyridine and cyano-substituted pyrimidine compound and preparation method therefor and application thereof” (BEIJING SCITECH-MQ PHARMACEUTICALS LIMITED, priority 2019, dated 2026).

In experiment [1] the target is T1, Ba/F3 ETV6-FGFR4-V550L cells (Homo sapiens, UniProt P22455, V550L, cells depend on it).
T1 construct: fused on or other part: N-terminal part of ETV6 (TEL), the oligomerising partner of the fusion; already named as the first entry; P41212 (Transcription factor ETV6)
Description: Inhibition of cell proliferation (CCK-8), Ba/F3 ETV6-FGFR4-V550L cells. It is filed as cell-based. The conditions noted are these: 72 hours of incubation, read-out: Ba/F3 ETV6-FGFR4-V550L IC50. The method, then: (§1) Compounds were assayed for inhibiting cell proliferation, and the specific method was as follows: • 1. Cells were cultured to a logarithmic growth phase, pipetted evenly, transferred to a 15 mL centrifuge tube, and centrifuged at 1000 rpm at room temperature for 4 minutes; • 2. The supernatant was discarded; 5 mL of complete medium was added and pipetted evenly; 10 μL of cell suspension was weighed, mixed well with 10 μL of 0.4% trypan blue, and counted under a cell counter; the proportion of living cells was ensured to be above 90%; • 3. The cell suspension was seeded into a 96-well plate (80 μL of cell suspension per well) according to the conditions shown in Table 5; in the outer 36 wells of the 96-well plate, no cells were added but only sterile water was added; only the inner 60 wells were used for cell assay and control; • 4. 5× compound dilution: the compounds were serially diluted 4-fold to give a total of 9 concentrations; 80-fold overall dilution was completed with complete medium, the resulting concentration was 5 times the final drug concentration, and DMSO concentration was 1.25%; • 5. 20 μL of the corresponding compounds with different concentrations were added to each well of assay wells of the 96-well plate; 20 μL of complete medium was added to positive and negative control wells and shaken well; and the final concentration of DMSO in each well was 0.25%; • 6. After 72 hours of incubation, 10 μL of CCK-8 reagent was added to each well and further incubated at 37° C. for 1-2 hours; and the OD value was read at 450 nm; 7. Cell survival rate (%)=[(As−Ab)/(Ac−Ab)]*100% • As: Assay well (medium containing cells, CCK-8, compound) • Ac: Control well (medium containing cells, CCK-8) • Ab: Blank well (medium without cell and compound, CCK-8) • 8. The values were imported into Graphpad Prism 5 software for IC50 calculation.

In the next experiment the target is FGFR4 kinase (Homo sapiens, UniProt P22455). Briefly: Inhibition of FGFR4 kinase activity (ULight-labeled JAK-1 peptide, EU665/EU615 reading). It is filed as biochemical. The following applies: FGFR4 kinase 3.85 nM, ATP 100 μM, enzymatic reaction 2 hours. The protocol: (§2) Assay of activity of small molecule compounds on inhibiting FGFR4 kinase and FGFR4 V550L mutant kinase. The assay method was as follows:
(§3) 1) Dilution of Compounds:
(§4) In a 96-well plate a, the compounds were serially diluted 3-fold with DMSO to form 11 concentrations, and the 12th concentration was pure DMSO (as a positive control); In a new 96-well plate b, the above solutions were diluted 25-fold with ultrapure water (DMSO concentration was 4%).
(§5) 2) Transferring Compounds to a 384-Well Plate:
(§6) The above solutions of compounds diluted with ultrapure water in the 96-well plate b were pipetted into corresponding wells of a 384-well plate.
(§7) 3) Adding 4× kinase solution: 2.5 μl of the above 4× kinase solutions were pipetted with a multi-channel pipette into corresponding reaction wells of the 384-well plate, and the mixture was mixed well and pre-reacted at room temperature for 5 minutes.
(§8) 4) Adding 2× substrate/ATP mixture: 5 μl of the above 2× substrate/ATP mixtures were pipetted with a multi-channel pipette into corresponding reaction wells of the 384-well plate.
(§9) 5) Negative control: negative control wells were set up in the 384-well plate by adding 2.5 μl of 4× substrate, 2.5 μl of 4× enzyme solution, 2.5 μl of 1× kinase Assay Buffer and 2.5 μl of ultrapure water containing 4% DMSO to each well.
(§10) 6) Centrifuging, mixing well, and reacting at room temperature in the dark for 2 hours.
(§11) 7) Terminating the Enzymatic Reaction:
(§12) 5 μl of the above 4× stop solutions were pipetted into corresponding wells of the 384-well plate, and the mixture was centrifuged, mixed well, and then reacted at room temperature for 5 minutes.
(§13) 8) Development of the Reaction:
(§14) 5 μl of the above 4× detection solutions were pipetted into corresponding wells of the 384-well plate, and the mixture was centrifuged, mixed well, and then reacted at room temperature for 1 hour.
(§15) 9) The 384-well plate was placed into a plate reader, and the signal was detected using the appropriate program.
(§16) 10) Analysis of IC50: Reading of well=10000*EU665 value/EU615 value Inhibition rate=(reading of positive control well−reading of assay well)/(reading of positive control well−reading of negative control well)*100%
(§17) The corresponding IC50 can be calculated by inputting the drug concentrations and corresponding inhibition rates into GraphPad Prism 5 and processing.
Assay Conditions for Screening FGFR4 Kinase Activity Inhibitory Molecule:
The final concentration of FGFR4 kinase in the reaction system was 3.85 nM, the final concentration of ATP was 100 μM, the final concentration of substrate ULight™-labeled JAK-1 (Tyr1023) Peptide was 100 nM, and the time for enzymatic reaction was 2 hours.
The highest final concentration of the compound in the reaction system was 2.5 μM. After serial 3-fold dilution, there were 11 concentrations in total, and the lowest final concentration was 0.042 nM. The final concentration of DMSO was 1%.

The target of the next experiment is T2, Ba/F3 ETV6-FGFR4 cells (Homo sapiens, UniProt P22455).
T2 construct: fused on or other part: N-terminal part of ETV6 (TEL), the oligomerising partner that makes the FGFR4 kinase constitutively active; P41212 (Transcription factor ETV6)
Briefly: Inhibition of cell proliferation (CCK-8), Ba/F3 ETV6-FGFR4 cells. The following applies: 72 hours of incubation, read-out: Ba/F3 ETV6-FGFR4 IC50. It is filed as cell-based. The method, then:
as §1

The target of another experiment is FGFR4 V550L kinase (Homo sapiens, UniProt P22455, V550L). Briefly: Inhibition of FGFR4 V550L mutant kinase activity (ULight-labeled PolyGT, EU665/EU615 reading). The following applies: FGFR4 V550L kinase 1 nM, ATP 10 μM, enzymatic reaction 2 hours. The class given is biochemical. The protocol:
as §2, §3, §4, §5, §6, §7, §8, §9, §10, §11, §12, §13, §14, §15, §16, §17
Assay Conditions for Screening FGFR4 V550L Kinase Activity Inhibitory Molecule:
The final concentration of FGFR4 V550L kinase in the reaction system was 1 nM, the final concentration of ATP was 10 μM, the final concentration of substrate ULight™-labeled PolyGT was 100 nM, and the time for enzymatic reaction was 2 hours.
The highest final concentration of the compound in the reaction system was 2.5 μM. After seral 3-fold dilution, there were 11 concentrations in total, and the lowest final concentration was 0.042 nM. The final concentration of DMSO was 1%.

Some results are limits rather than exact numbers.

T1 sequence (P22455 whole entry V550L, the tested form may be a part): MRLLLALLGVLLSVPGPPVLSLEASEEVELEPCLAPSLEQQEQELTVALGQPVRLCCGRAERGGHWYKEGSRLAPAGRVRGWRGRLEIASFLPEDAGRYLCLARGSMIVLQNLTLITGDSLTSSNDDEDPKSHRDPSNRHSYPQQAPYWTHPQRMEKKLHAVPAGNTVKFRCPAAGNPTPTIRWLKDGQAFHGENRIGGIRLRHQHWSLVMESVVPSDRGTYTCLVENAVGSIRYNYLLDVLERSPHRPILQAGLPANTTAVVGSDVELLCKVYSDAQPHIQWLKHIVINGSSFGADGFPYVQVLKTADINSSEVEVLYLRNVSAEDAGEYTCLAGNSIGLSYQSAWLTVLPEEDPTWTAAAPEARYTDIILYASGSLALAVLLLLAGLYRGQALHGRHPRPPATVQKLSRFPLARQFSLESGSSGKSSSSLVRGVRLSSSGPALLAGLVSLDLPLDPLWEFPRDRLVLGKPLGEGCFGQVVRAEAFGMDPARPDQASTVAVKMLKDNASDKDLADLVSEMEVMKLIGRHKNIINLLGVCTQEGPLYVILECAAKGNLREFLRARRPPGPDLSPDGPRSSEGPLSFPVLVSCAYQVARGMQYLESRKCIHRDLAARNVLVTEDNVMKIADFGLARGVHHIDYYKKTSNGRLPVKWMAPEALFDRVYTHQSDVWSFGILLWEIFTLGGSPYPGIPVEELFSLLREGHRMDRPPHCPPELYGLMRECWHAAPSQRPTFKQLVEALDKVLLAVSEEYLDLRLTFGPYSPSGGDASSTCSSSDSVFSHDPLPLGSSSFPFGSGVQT
Chain of FGFR4 kinase (P22455 22-802): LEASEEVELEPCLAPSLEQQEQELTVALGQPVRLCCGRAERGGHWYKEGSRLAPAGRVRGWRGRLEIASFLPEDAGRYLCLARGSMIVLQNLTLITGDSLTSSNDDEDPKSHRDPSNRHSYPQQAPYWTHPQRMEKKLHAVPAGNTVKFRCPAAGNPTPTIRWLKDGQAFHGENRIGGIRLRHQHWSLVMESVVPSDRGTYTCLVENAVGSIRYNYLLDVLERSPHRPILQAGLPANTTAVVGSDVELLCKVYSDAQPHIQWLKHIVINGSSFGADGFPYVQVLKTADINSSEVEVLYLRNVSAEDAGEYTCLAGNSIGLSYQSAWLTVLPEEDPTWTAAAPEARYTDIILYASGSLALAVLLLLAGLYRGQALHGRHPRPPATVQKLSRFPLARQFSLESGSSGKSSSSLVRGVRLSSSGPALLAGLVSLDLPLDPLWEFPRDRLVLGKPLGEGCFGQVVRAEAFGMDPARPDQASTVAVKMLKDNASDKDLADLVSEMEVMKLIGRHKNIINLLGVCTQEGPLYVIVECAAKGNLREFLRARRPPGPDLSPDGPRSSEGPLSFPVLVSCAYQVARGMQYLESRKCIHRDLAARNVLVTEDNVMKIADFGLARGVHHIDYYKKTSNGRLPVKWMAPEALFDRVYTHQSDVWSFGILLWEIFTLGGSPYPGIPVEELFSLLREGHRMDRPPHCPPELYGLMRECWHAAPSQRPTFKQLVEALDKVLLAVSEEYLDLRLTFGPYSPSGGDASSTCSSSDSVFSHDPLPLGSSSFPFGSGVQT
T2 sequence (P22455 whole entry, change not shown, the tested form may be a part): as the sequence (P22455 whole entry V550L, the tested form may be a part) above, with L550V counted along it
Chain of FGFR4 V550L kinase (P22455 22-802 V550L): as the sequence (P22455 22-802) above, with V529L counted along it

One may read the IC50 as the midpoint of a concentration-inhibition curve. With `C=CC(=O)Nc1cc(N2CCC(N3CCN(C)CC3=O)CC2)ccc1Nc1ncc(C#N)c(Nc2ccc(F)cc2OC(C)C)n1` [Example 47, N-(2-((5-cyano-4-((4-fluoro-2-isopropoxyphenyl)amino)pyrimidin-2-yl)amino)-5-(4-(4-methyl-2-oxopiperazin-1-yl)piperidin-1-yl)phenyl) acrylamide], the GI50 (in experiment [1]; at Ba/F3 ETV6-FGFR4 cells) was ≤ 10 nM each time. Moreover, the IC50 against FGFR4 kinase and on FGFR4 V550L kinase was 10 to 50 nM in each case.

As to `C=CC(=O)Nc1cc(N2CCC(N(C)CCN(C)C)CC2)ccc1Nc1ncc(C#N)c(Nc2ccccc2OC(C)C)n1` [Example 57, N-(2-((5-cyano-4-((2-isopropoxyphenyl)amino)pyrimidin-2-yl)amino)-5-(4-((2-(dimethylamino)ethyl)(methyl)amino)piperidin-1-yl)phenyl) acrylamide], the GI50 (in experiment [1]; on Ba/F3 ETV6-FGFR4 cells) was ≤ 10 nM each time. Besides, the IC50 was 10 to 50 nM against FGFR4 kinase and ≤ 10 nM at FGFR4 V550L kinase.

In the case of `C=CC(=O)Nc1cc(N2CCC(N(C)CCSC)CC2)ccc1Nc1ncc(C#N)c(Nc2ccccc2OC(C)C)n1` [Example 73], the GI50 (in experiment [1]; at Ba/F3 ETV6-FGFR4 cells) was ≤ 10 nM each time. Moreover, the IC50 against FGFR4 kinase and at FGFR4 V550L kinase was ≤ 10 nM throughout.

For the molecule `C=CC(=O)Nc1cc(N2CCN(CC)CC2)ccc1Nc1ncc(C#N)c(Nc2cc(C#N)ccc2OC(C)C)n1` [Example 25, N-(2-((5-cyano-4-((5-cyano-2-isopropoxyphenyl)amino)pyrimidin-2-yl)amino)-5-(4-ethylpiperazin-1-yl)phenyl) acrylamide], the GI50 (in experiment [1]; on Ba/F3 ETV6-FGFR4 cells) was 10 to 50 nM each time. In addition, the IC50 against FGFR4 kinase was 50 to 100 nM; on FGFR4 V550L kinase it was 10 to 50 nM.

With `C=CC(=O)Nc1cc(N2CCC(N3CCN(C(C)=O)CC3)CC2)ccc1Nc1ncc(C#N)c(Nc2ccccc2OC(C)C)n1` [Example 50, N-(5-(4-(4-acetylpiperazin-1-yl)piperidin-1-yl)-2-((5-cyano-4-((2-isopropoxyphenyl)amino)pyrimidin-2-yl)amino)phenyl) acrylamide], the GI50 (in experiment [1]; at Ba/F3 ETV6-FGFR4 cells) was ≤ 10 nM each time. Besides, the IC50 was 10 to 50 nM on FGFR4 kinase and ≤ 10 nM on FGFR4 V550L kinase.

The molecule `C=CC(=O)Nc1cc(N2CCC(N3CCN(C)CC3)CC2)ccc1Nc1cc(Nc2ccccc2OC(C)C)c(C#N)cn1` [Example 83, N-(2-((5-cyano-4-((2-isopropoxyphenyl)amino)pyridin-2-yl)amino)-5-(4-(4-methylpiperazin-1-yl)piperidin-1-yl)phenyl)acrylamide] yielded an IC50 against FGFR4 kinase of 10 to 50 nM.

For the molecule `C=CC(=O)Nc1cc(N2CCC(N3CCOCC3)CC2)c(C)cc1Nc1ncc(C#N)c(Nc2ccccc2OC(C)C)n1` [Example 12, N-(2-((5-cyano-4-((2-isopropoxyphenyl)amino)pyrimidin-2-yl)amino)-4-methyl-5-(4-morpholinopiperidin-1-yl)phenyl) acrylamide], the concentration for half-maximal inhibition (IC50) against FGFR4 kinase and against FGFR4 V550L kinase was 10 to 50 nM throughout.

Regarding `C=CC(=O)Nc1cc(N2CCN(CC)CC2)ccc1Nc1ncc(C#N)c(Nc2ccc(C#N)cc2OC(C)C)n1` [Example 32, N-(2-((5-cyano-4-((4-cyano-2-isopropoxyphenyl)amino)pyrimidin-2-yl)amino)-5-(4-ethylpiperazin-1-yl)phenyl) acrylamide], the results for the GI50 (in experiment [1]; on Ba/F3 ETV6-FGFR4 cells) were 10 to 50 nM and ≤ 10 nM, respectively. The IC50 against FGFR4 V550L kinase was in the range of 10 to 50 nM.

For `C=CC(=O)Nc1cc(N2CCC(N3CCN(C)CC3)CC2)c(OC)cc1Nc1ncc(C#N)c(Nc2ccccc2OC(C)C)n1` [Example 53, N-(2-((5-cyano-4-((2-isopropoxyphenyl)amino)pyrimidin-2-yl)amino)-4-methoxy-5-(4-(4-methylpiperazin-1-yl)piperidin-1-yl)phenyl) acrylamide], the GI50 (in experiment [1]; on Ba/F3 ETV6-FGFR4 cells) was ≤ 10 nM each time. The IC50 against FGFR4 kinase is 50 to 100 nM; against FGFR4 V550L kinase, ≤ 10 nM.

Turning to `C=CC(=O)Nc1cc(N2CCC(N(C)CCCS(C)(=O)=O)CC2)ccc1Nc1ncc(C#N)c(Nc2ccccc2OC(C)C)n1` [Example 75, N-(2-((5-cyano-4-((2-isopropoxyphenyl)amino)pyrimidin-2-yl)amino)-5-(4-(methyl(3-(methylsulfonyl)propyl)amino)piperidin-1-yl)phenyl) acrylamide], the GI50 (in experiment [1]; on Ba/F3 ETV6-FGFR4 cells) was ≤ 10 nM each time. Besides, the IC50 against FGFR4 kinase and against FGFR4 V550L kinase was ≤ 10 nM throughout.

Take `C=CC(=O)Nc1cc(N2CCC(N3CCCCC3)CC2)c(C)cc1Nc1ncc(C#N)c(Nc2ccccc2OC(C)C)n1` [Example 11, N-(5-([1,4‘- bipiperidin]-1′-yl)-2-((5-cyano-4-((2-isopropoxyphenyl)amino)pyrimidin-2-yl)amino)-4-methylphenyl) acrylamide]: the GI50 (in experiment [1]; at Ba/F3 ETV6-FGFR4 cells) was 10 to 50 nM throughout. The IC50 on FGFR4 kinase was 10 to 50 nM.

As for `C=CC(=O)Nc1cc(N2CCN(CC)CC2)ccc1Nc1cc(Nc2ccccc2OC(C)C)c(C#N)cn1` [Example 84, N-(2-((5-cyano-4-((2-isopropoxyphenyl)amino)pyridin-2-yl)amino)-5-(4-ethylpiperazin-1-yl)phenyl)acrylamide], the IC50 against FGFR4 kinase was 10 to 50 nM.

As to `C=CC(=O)Nc1cc(N2CCC(N(C)C)CC2)c(C)cc1Nc1ncc(C#N)c(Nc2ccccc2OC(C)C)n1` [Example 9, N-(2-((5-cyano-4-((2-isopropoxyphenyl)amino)pyrimidin-2-yl)amino)-5-(4-(dimethylamino)piperidin-1-yl)-4-methylphenyl) acrylamide], the IC50 against FGFR4 kinase and on FGFR4 V550L kinase was 10 to 50 nM each time.

On to `C=CC(=O)Nc1cc(N2CCC(N(C)C)CC2)ccc1Nc1cc(Nc2ccccc2OC(C)C)c(C#N)cn1` [Example 82, N-(2-((5-cyano-4-((2-isopropoxyphenyl)amino)pyridin-2-yl)amino)-5-(4-(dimethylamino)piperidin-1-yl)phenyl)acrylamide], for which the IC50 at FGFR4 kinase was in the range of 10 to 50 nM.
